Patent US9206173B2, “Heterocyclic compounds for the treatment of stress-related conditions” (OTSUKA PHARMACEUTICAL CO., LTD., priority 2009, dated 2015)
Where a name gives a salt, the structure may show the parent alone.

Legend:
human GPR10 [1] = target: T1, human GPR10 (Homo sapiens (Human), UniProt P49683); experiment: Inhibitory activity on binding of [3H]-PrRP to GPR10 (HEK 293 cell membrane fraction); conditions: [3H]-PrRP 1 nM, human GPR10-expressing HEK 293 cell membrane fraction; Ki from IC50 by Cheng-Prussoff formula
T1 sequence (P49683 whole entry): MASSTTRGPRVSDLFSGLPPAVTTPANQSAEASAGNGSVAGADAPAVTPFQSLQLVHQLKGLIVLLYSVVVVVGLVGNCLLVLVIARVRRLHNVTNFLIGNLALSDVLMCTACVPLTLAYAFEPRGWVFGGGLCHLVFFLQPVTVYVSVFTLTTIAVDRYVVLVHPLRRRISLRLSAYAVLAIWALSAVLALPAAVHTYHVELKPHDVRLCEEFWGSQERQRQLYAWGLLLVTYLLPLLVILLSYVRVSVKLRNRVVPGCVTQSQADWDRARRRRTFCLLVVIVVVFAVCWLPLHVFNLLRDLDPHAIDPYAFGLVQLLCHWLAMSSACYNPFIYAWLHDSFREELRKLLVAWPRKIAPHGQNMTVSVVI
Procedure: Inhibitory Activity on Binding of [^3H]-PrRP to GPR10
Human GPR10 receptor expressing human embryonic kidney cells, HEK 293 cells, were cultured in Dulbecco's Modified Eagle's medium supplemented with 10% fetal bovine serum and 1% penicilline-streptmycin at 37° C., in 5% carbon dioxide gas conditions. The medium was removed and the cells were recovered in a phosphate buffer to prepare a cell suspension. The cell suspension was homogenated on ice by an ultrasonic cell homogenizer (Microson™ type XL200) and centrifuged at 40,000 g for 10 minutes at 4° C. After the supernatant was discarded, Buffer A (20 mM HEPES, 10 mM EDTA, 1 μl/ml protease inhibiting cocktail, pH 7.4) was added to the pellet. The pellet was suspended by the ultrasonic cell homogenizer, then the suspension was centrifuged at 40,000 g, for 10 minutes at 4° C. After this operation was repeated once again, the supernatant was discarded, Buffer B (20 mM HEPES, 0.1 mM EDTA, pH 7.4) was added to the pellet, and the pellet was suspended by the ultrasonic homogenizer. This was stored at a freezer of −80° C. as a cell membrane fraction until use in a binding test.
To each well of a 96-well plate, 150 μl of assay buffer (20 mM HEPES, 10 mM EDTA, 1 μl/ml protease inhibiting agent cocktail, pH 7.4), 20 μl of cell membrane fraction, 10 μl of test compound and [^3H]-PrRP (final concentration 1 nM) were added and incubated at room temperature for 90 minutes. After completion of the reaction, using a cell harvester, the cell-membrane fraction sample product was filtered under aspiration by a glass fiber filter plate (Unifilter; GF/B) previously treated with 0.5% polyethylene imine. The filter was washed with a 50 mM Tris hydrochloric acid buffer (pH 7.4) three times. After the filter was dried in a dryer (50° C.) for about 3 hours, 40 μl of liquid scintillation cocktail (MicroScint-O) was added to each well and radio activity was measured by a scintillation counter (Packard Topcount). The radio activity in the presence of an excessive amount of non-labeled PrRP (final concentration: 100 nM) was regarded as non-specific binding.
The binding inhibition rate was calculated based on calculating formula: 100−(radio activity when a compound is added−radio activity of non-specific binding)÷(radio activity when a solvent is added−radio activity of non-specific binding)×100.
An IC50 value was calculated based on the concentration dependent reaction using a non-linear analysis program and a Ki value was calculated using Cheng-Prussoff formula.

human GPR10 [2] = target: T1, human GPR10; experiment: Antagonistic activity on PrRP-induced intracellular calcium mobilization in human GPR10-expressing HEK293 cells; format: cell-based; conditions: PrRP 1 nM-induced intracellular calcium mobilization, Fluo-8
Procedure: Pharmacological Test 2 Antagonistic Activity on GPR10 Using Human GPR10-Expressing HEK293 Cells.
Antagonistic activity of test compounds on PrRP-induced intracellular calcium mobilization was evaluated using GPR10-expressing HEK293 cells.
HEK293 cells expressing human GPR10 were maintained in Dulbecco's Modified Eagles' medium supplemented with 10% fetal bovine serum, 1% penicillin-streptomycin and 20 mM HEPES at 37° C. in a 5% CO2 incubator. GPR10-expressing HEK293 cells were placed in poly-D-lysine coated 96-well culture plates and cultured for 18-24 hr before the test at a density of 3×10^4 cells/well. […] The cells were incubated with test compounds for 15 min at room temperature, and then PrRP (the final concentration, 1 nM) was added into the medium. The changes in intracellular calcium-dependent fluorescence were monitored using a fluorescence imaging plate reader (FDSS3000, Hamamatsu Photonics K.K.). Fluo-8 fluorescence was measured with excitation at 490 nm and emission at 520 nm. The calcium-dependent fluorescence intensity was calculated by subtracting basal intensity (average intensity for 30 sec before agonist stimulation) from peak intensity for 60 sec after PrRP-stimulation, and then IC50 values were determined by nonlinear curve-fitting program, GraphPad Prism 5.

| Ki (human GPR10 [1]) [nM] | SMILES | IC50 (human GPR10 [2]) [nM] |
| --- | --- | --- |
| 34 | COn1c(N2CCCC2c2ccc(C(F)(F)F)cc2)nc2c(c1=O)CN(C(=O)c1ccc(Cl)cc1)CC2 (centres unmarked) [Example 2475, 6-(4-chlorobenzoyl)-3-methoxy-2-[2-(4-trifluoromethylphenyl)pyrrolidin-1-yl]-5,6,7,8-tetrahydro-3H-pyrido[4,3-d]pyrimidin-4-one] | – |
| 9 | C#CCn1c(N[C@@H](C)c2ccc(C(F)(F)F)cc2)nc2c(c1=O)CN(C(=O)c1cccc(C#N)c1)CC2 [Example 2476, 3-{4-oxo-3-(2-propynyl)-2-[(S)-1-(4-trifluoromethylphenyl)ethylamino]-3,5,7,8-tetrahydro-4H-pyrido[4,3-d]pyrimidine-6-carbonyl}benzonitrile] | – |
| 39 | COn1c(NCc2ccc(C(F)(F)F)cc2)nc2c(c1=O)CN(C(=O)c1ccc(Cl)cc1)CC2 [Example 2477, 6-(4-chlorobenzoyl)-3-methoxy-2-(4-trifluoromethylbenzylamino)-5,6,7,8-tetrahydro-3H-pyrido[4,3-d]pyrimidin-4-one hydrochloride] | – |
| 9 | C#CCn1c(N[C@@H](C)c2ccc(C(F)(F)F)cc2)nc2c(c1=O)CN(C(=O)c1c(F)cccc1F)CC2 [Example 2478, 6-(2,6-difluorobenzoyl)-3-(2-propynyl)-2-[(S)-1-(4-trifluoromethylphenyl)ethylamino]-5,6,7,8-tetrahydro-3H-pyrido[4,3-d]pyrimidin-4-one] | – |
| 42 | COn1c(N[C@H](c2ccc(Cl)cc2)C(C)C)nc2c(c1=O)CN(C(=O)c1ccc3c(c1)OCCO3)CC2 [Example 2479, 2-[(S)-1-(4-chlorophenyl)-2-methylpropylamino]-6-(2,3-dihydrobenzo[1,4]dioxine-6-carbonyl)-3-methoxy-5,6,7,8-tetrahydro-3H-pyrido[4,3-d]pyrimidin-4-one] | – |
| 31 | COn1c(N[C@H](c2ccc(Cl)cc2)C(C)C)nc2c(c1=O)CN(C(=O)c1ccc(-n3ccnc3)cc1)CC2 [Example 2481, 2-[(S)-1-(4-chlorophenyl)-2-methylpropylamino]-6-(4-imidazol-1-ylbenzoyl)-3-methoxy-5,6,7,8-tetrahydro-3H-pyrido[4,3-d]pyrimidin-4-one] | – |
| 8 | CC[C@H](Nc1nc2c(c(=O)n1OC)CN(C(=O)c1ccc(C#N)cc1F)CC2)c1ccc(C(F)(F)F)cc1 [Example 2482, 3-fluoro-4-{3-methoxy-4-oxo-2-[(S)-1-(4-trifluoromethylphenyl)propylamino]-3,5,7,8-tetrahydro-4H-pyrido[4,3-d]pyrimidine-6-carbonyl}benzonitrile] | – |
| 13 | COn1c(N[C@H](c2ccc(Cl)cc2)C(C)C)nc2c(c1=O)CN(C(=O)c1cc3ccccn3n1)CC2 [Example 2483, 2-[(S)-1-(4-chlorophenyl)-2-methylpropylamino]-3-methoxy-6-(pyrazolo[1,5-a]pyridine-2-carbonyl)-5,6,7,8-tetrahydro-3H-pyrido[4,3-d]pyrimidin-4-one] | – |
| 24 | COn1c(N[C@H](c2ccc(Cl)cc2)C(C)C)nc2c(c1=O)CN(C(=O)c1ccc3c(c1)CCC(=O)N3C)CC2 [Example 2487, 2-[(S)-1-(4-chlorophenyl)-2-methylpropylamino]-3-methoxy-6-(1-methyl-2-oxo-1,2,3,4-tetrahydro-quinoline-6-carbonyl)-5,6,7,8-tetrahydro-3H-pyrido[4,3-d]pyrimidin-4-one] | – |
| 26 | COn1c(N[C@H](c2ccc(Cl)cc2)C(C)C)nc2c(c1=O)CN(C(=O)c1cc3ccccc3cn1)CC2 [Example 2489, 2-[(S)-1-(4-chlorophenyl)-2-methylpropylamino]-6-(isoquinoline-3-carbonyl)-3-methoxy-5,6,7,8-tetrahydro-3H-pyrido[4,3-d]pyrimidin-4-one] | – |
| 237 | CCOc1ccc(CNc2nc3c(c(=O)n2OC)CN(C(=O)c2ccc(C#N)cc2F)CC3)cc1 [Example 2490, 4-[2-(4-ethoxybenzylamino)-3-methoxy-4-oxo-3,5,7,8-tetrahydro-4H-pyrido[4,3-d]pyrimidine-6-carbonyl]-3-fluorobenzonitrile] | – |
| 201 | C#CCCn1c(N[C@@H](C)c2ccc(C(F)(F)F)cc2)nc2c(c1=O)CN(C(=O)c1ccc(C(=O)N(C)C)cc1)CC2 [Example 2494, 4-{3-(3-butynyl)-4-oxo-2-[(S)-1-(4-trifluoromethylphenyl)ethylamino]-3,5,7,8-tetrahydro-4H-pyrido[4,3-d]pyrimidine-6-carbonyl}-N,N-dimethylbenzamide] | – |
| 3 | COn1c(N[C@@H](C)c2ccc(Cl)cc2)nc2c(c1=O)CN(C(=O)c1cc3cccnc3s1)CC2 [Example 2495, 2-[(S)-1-(4-chlorophenyl)ethylamino]-3-methoxy-6-(thieno[2,3-b]pyridine-2-carbonyl)-5,6,7,8-tetrahydro-3H-pyrido[4,3-d]pyrimidin-4-one hydrochloride] | – |

| SMILES | Ki (human GPR10 [1]) [nM] | IC50 (human GPR10 [2]) [nM] |
| --- | --- | --- |
| C#CCn1c(N[C@@H](C)c2ccc(C(F)(F)F)cc2)nc2c(c1=O)CN(C(=O)c1ccc(C#N)cc1F)CC2 [Example 1, 6-(4-cyano-2-fluorobenzoyl)-3-propargyl-2-(S)-{1-[4-(trifluoromethyl)phenyl]ethylamino}-5,6,7,8-tetrahydropyrido[4,3-d]pyrimidin-4-(3H)-one hydrochloride] | 5 | 42 |
| C#CCn1c(N[C@@H](C)c2ccc(C(F)(F)F)cc2)nc2c(c1=O)CN(C(=O)c1ccc(Cl)cc1)CC2 [Example 2, 6-(4-chlorobenzoyl)-3-propargyl-2-(S)-{1-[4-(trifluoromethyl)phenyl]ethylamino}-5,6,7,8-tetrahydropyrido[4,3-d]pyrimidin-4-(3H)-one hydrochloride] | 29 | 378 |
| C#CCn1c(N[C@@H](C)c2ccc(Cl)cc2)nc2c(c1=O)CN(C(=O)c1ccc(Cl)cc1)CC2 [Example 3, 6-(4-chlorobenzoyl)-3-propargyl-2-(S)-{1-[4-chlorophenyl]ethylamino}-5,6,7,8-tetrahydropyrido[4,3-d]pyrimidin-4-(3H)-one] | 42 | 1720 |
| C[C@H](Nc1nc2c(c(=O)n1N(C)C)CN(C(=O)c1ccc(C#N)cc1F)CC2)c1ccc(C(F)(F)F)cc1 [Example 5, 6-(4-cyano-2-fluorobenzoyl)-3-dimethylamino-2-(S)-{1-[4-(trifluoromethyl)phenyl]ethylamino}-5,6,7,8-tetrahydropyrido[4,3-d]pyrimidin-4-(3H)-one hydrochloride] | 8 | 46 |
| COn1c(N[C@@H](C)c2ccc(Cl)cc2)nc2c(c1=O)CN(C(=O)c1ccc(Cl)cc1)CC2 [Example 9, 6-(4-chlorobenzoyl)-3-methoxy-2-(S)-[1-(4-chlorophenyl)ethylamino]-5,6,7,8-tetrahydropyrido[4,3-d]pyrimidin-4-(3H)-one] | 28 | 204 |
| COn1c(N[C@@H](C)c2ccc(C(F)(F)F)cc2)nc2c(c1=O)CN(C(=O)c1ccc(Cl)cc1)CC2 [Example 10, 6-(4-chlorobenzoyl)-3-methoxy-2-(S)-{1-[4-(trifluoromethyl)phenyl]ethylamino}-5,6,7,8-tetrahydropyrido[4,3-d]pyrimidin-4-(3H)-one hydrochloride] | 17 | 140 |
| COn1c(N[C@@H](C)c2ccc(C(F)(F)F)cc2)nc2c(c1=O)CN(C(=O)c1ccc(C#N)cc1F)CC2 [Example 11, 6-(4-cyano-2-fluorobenzoyl)-3-methoxy-2-(S)-{1-[4-(trifluoromethyl)phenyl]ethylamino}-5,6,7,8-tetrahydropyrido[4,3-d]pyrimidin-4-(3H)-one hydrochloride] | 15 | 34 |
| COn1c(N[C@@H](C)c2ccc(C(F)(F)F)cc2)nc2c(c1=O)CN(C(=O)c1ccc(OC(F)(F)F)cc1)CC2 [Example 63] | 16 | 686 |
